In PubChem BioAssay (NCI):
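Tested at 5 concentrations; 48 h exposure; 96-well plates; endpoints linearly interpolated, else capped at highest concentration. Definition used: TGI = concentration required for complete inhibition of growth.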

Key:
Assay in all cases: DTP human tumour cell line panel, 48 h
[1] = test system: 786-0 renal
[2] = test system: A498 renal
[3] = test system: A549 NSCLC
[4] = test system: ACHN renal
[5] = test system: CAKI-1 renal
[6] = test system: CCRF-CEM leukemia
[7] = test system: COLO 205 colon
[8] = test system: DLD-1 colon
[9] = test system: DMS 114 small cell lung
[10] = test system: EKVX NSCLC
[11] = test system: HCC-2998 colon
[12] = test system: HCT-15 colon
[13] = test system: HL-60(TB) leukemia
[14] = test system: HOP-62 NSCLC
[15] = test system: HOP-92 NSCLC
[16] = test system: HT29 colon
[17] = test system: IGROV1 ovarian
[18] = test system: K-562 leukemia
[19] = test system: KM12 colon
[20] = test system: KM20L2 colon
[21] = test system: LOX IMVI melanoma
[22] = test system: LXFL 529 NSCLC
[23] = test system: M14 melanoma
[24] = test system: M19-MEL melanoma
[25] = test system: MALME-3M melanoma
[26] = test system: MOLT-4 leukemia
[27] = test system: NCI-H226 lung
[28] = test system: NCI-H23 lung
[29] = test system: NCI-H460 lung
[30] = test system: NCI-H522 lung
[31] = test system: OVCAR-3 ovarian
[32] = test system: OVCAR-4 ovarian
[33] = test system: OVCAR-5 ovarian
[34] = test system: OVCAR-8 ovarian
[35] = test system: RPMI-8226 leukemia
[36] = test system: RXF 393 renal
[37] = test system: RXF-631 renal
[38] = test system: SF-268 CNS
[39] = test system: SF-295 CNS
[40] = test system: SF-539 CNS
[41] = test system: SK-MEL-2 melanoma
[42] = test system: SK-MEL-28 melanoma
[43] = test system: SK-MEL-5 melanoma
[44] = test system: SK-OV-3 ovarian
[45] = test system: SN12C renal
[46] = test system: SNB-75 CNS
[47] = test system: SNB-78 CNS
[48] = test system: SW-620 colon
[49] = test system: TK-10 renal
[50] = test system: U251 CNS
[51] = test system: UACC-257 melanoma
[52] = test system: UACC-62 melanoma
[53] = test system: UO-31 renal
[54] = test system: XF 498 CNS
[55] = test system: DMS 273 small cell lung
[56] = test system: HCT-116 colon
[57] = test system: SNB-19 CNS

CC1(C)SCc2nc3ncccc3n21
TGI [1]: > 100 µM | TGI [2]: > 100 µM | TGI [3]: > 100 µM | TGI [4]: > 100 µM | TGI [5]: > 100 µM | TGI [6]: > 100 µM | TGI [7]: > 100 µM | TGI [8]: > 100 µM | TGI [9]: > 100 µM | TGI [10]: > 100 µM | TGI [11]: > 100 µM | TGI [12]: > 100 µM | TGI [13]: > 100 µM | TGI [14]: > 100 µM | TGI [15]: > 100 µM | TGI [16]: > 100 µM | TGI [17]: > 100 µM | TGI [18]: > 100 µM | TGI [19]: > 100 µM | TGI [20]: > 100 µM | TGI [21]: > 100 µM | TGI [22]: > 100 µM | TGI [23]: > 100 µM | TGI [24]: > 100 µM | TGI [25]: > 100 µM | TGI [26]: > 100 µM | TGI [27]: > 100 µM | TGI [28]: > 100 µM | TGI [29]: > 100 µM | TGI [30]: > 100 µM | TGI [31]: > 100 µM | TGI [32]: > 100 µM | TGI [33]: > 100 µM | TGI [34]: > 100 µM | TGI [35]: > 100 µM | TGI [36]: > 100 µM | TGI [37]: > 100 µM | TGI [38]: > 100 µM | TGI [39]: > 100 µM | TGI [40]: > 100 µM | TGI [41]: > 100 µM | TGI [42]: > 100 µM | TGI [43]: > 100 µM | TGI [44]: > 100 µM | TGI [45]: > 100 µM | TGI [46]: > 100 µM | TGI [47]: > 100 µM | TGI [48]: > 100 µM | TGI [49]: > 100 µM | TGI [50]: > 100 µM | TGI [51]: > 100 µM | TGI [52]: > 100 µM | TGI [53]: > 100 µM | TGI [54]: > 100 µM

CCOc1ccccc1N=Nc1ccc2oc(=O)c(C(=O)Nc3cccc(C)c3)cc2c1
TGI [1]: > 100 µM | TGI [2]: > 100 µM | TGI [3]: > 100 µM | TGI [5]: > 100 µM | TGI [6]: 83.8 µM | TGI [7]: 71.8 µM | TGI [8]: > 100 µM | TGI [9]: 63.4 µM | TGI [55]: > 100 µM | TGI [10]: 95.2 µM | TGI [11]: 96.9 µM | TGI [56]: 51.7 µM | TGI [12]: > 100 µM | TGI [13]: 63.3 µM | TGI [14]: > 100 µM | TGI [16]: > 100 µM | TGI [17]: > 100 µM | TGI [18]: 88 µM | TGI [19]: > 100 µM | TGI [20]: > 100 µM | TGI [21]: 61.6 µM | TGI [22]: > 100 µM | TGI [23]: 59.5 µM | TGI [24]: 93.4 µM | TGI [25]: > 100 µM | TGI [26]: 80.2 µM | TGI [28]: 94.7 µM | TGI [30]: 57.1 µM | TGI [31]: 62.4 µM | TGI [32]: 79.4 µM | TGI [33]: > 100 µM | TGI [34]: 86 µM | TGI [35]: > 100 µM | TGI [37]: > 100 µM | TGI [38]: > 100 µM | TGI [39]: > 100 µM | TGI [40]: 91.1 µM | TGI [41]: 46.9 µM | TGI [42]: 72.3 µM | TGI [43]: 32.8 µM | TGI [44]: > 100 µM | TGI [45]: > 100 µM | TGI [57]: 99.4 µM | TGI [46]: > 100 µM | TGI [47]: 91.3 µM | TGI [48]: > 100 µM | TGI [49]: > 100 µM | TGI [50]: 81.2 µM | TGI [51]: > 100 µM | TGI [52]: > 100 µM | TGI [53]: > 100 µM | TGI [54]: > 100 µM
